Measurements reported in paper PMC12948427 (The Journal of Clinical Investigation, 2025).
Values joined by “and” are separate entries in the source; they are usually repeats but may differ in a detail not shown here. Equal values may be shown once. Read-outs that look alike come from different tables or passages of the source.

Columns and labels:
SARS-CoV-2 wild-type = assay: microbe, parasite or virus in culture; type: cell-based; conditions: Severe acute respiratory syndrome coronavirus 2, 24 h, read-out: EC50 (IFA)
SARS-CoV-2 Omicron BA.5 [1] = assay: microbe, parasite or virus in culture; type: cell-based; conditions: Severe acute respiratory syndrome coronavirus 2, 24 h, read-out: EC50 (IFA)
HCoV-NL63 [2] = assay: In vitro antiviral activity assay (IFA), HCoV-NL63; type: cell-based; conditions: for Inhibition rate (IFA): Fig 5C, MOI 0.1, 48 h
MHV [3] = assay: microbe, parasite or virus in culture; type: cell-based, mouse hepatitis virus (MHV); conditions: Murine coronavirus, 24 h, read-out: EC50 (IFA)
HCoV-OC43 = assay: In vitro antiviral activity assay (IFA), HCoV-OC43; type: cell-based; conditions: for Inhibition rate (IFA): Fig 5E, MOI 0.1, 48 h
HCoV-229E [4] = assay: In vitro antiviral activity assay (IFA), HCoV-229E; type: cell-based; conditions: for Inhibition rate (IFA): Fig 5F, MOI 0.1, 48 h
HCoV-229E [5] = assay: Infection of ALI-cultured primary HBEs, HCoV-229E; type: cell-based
Procedure: (§1) Primary HBEs at passage 3 or earlier were seeded at a density of 40,000 cells per well in Transwell inserts (Costar 6.5 mm Transwell, 0.4 μm Pore Polyester Membrane Inserts, catalog 3470) for expansion culture. The cells were cultured in expansion medium (PneumaCult-Ex Plus Medium, catalog 05040) until tight junctions were formed. Once tight junctions were established, the expansion medium in the upper chamber was discarded, and the medium in the lower chamber was replaced with ALI differentiation medium (PneumaCult-ALI Medium, catalog 05001). Cells were maintained under ALI conditions, with the medium being changed every 2 days. The differentiation process was carried out for 21 days, during which cell morphology and differentiation status were monitored. The fully differentiated cells were infected with HCoV-OC43, HCoV-229E, HCoV-NL63, or SARS-CoV-2 (MOI = 1), and fresh medium was changed 1 hour postinfection. Specific peptide was added into the medium every 24 hours. At 96 hours postinfection, cells in Transwell inserts were washed with 140 μL PBS per insert, and the wash fluid was collected to extract virus RNA followed by RT-qPCR. […] The fluorescence was measured using ImageJ (NIH).

HCoV-NL63 [6] = assay: Infection of ALI-cultured primary HBEs, HCoV-NL63; type: cell-based
Procedure: as §1

SARS-CoV-2 Omicron BA.5 [7] = type: in vivo, K18-hACE2 C57BL/6 mice; conditions: mouse, in vivo
MHV [8] = system: MHV; set-up: species or system C57BL/6 mice; conditions: mouse, in vivo
HCoV-229E [9] = system: HCoV-229E; set-up: species or system K18-hACE2 C57BL/6 mice; conditions: mouse, in vivo
SARS-CoV-2 VLP = type: cell-based
MERS VLP = type: cell-based, MERS-CoV
SARS-CoV-2 M protein = type: cell-based
[10] = type: cell-based
MHV [11] = type: cell-based, mouse hepatitis virus (MHV); conditions: for Inhibition, combination matrix (Figure S12C): Molnupiravir 0 uM; for Inhibition, combination matrix (Figure S12D): nirmatrelvir 0 uM
MHV [12] = system: MHV
[13] = biological target: hHGS 1-390-6 × HIS protein (Homo sapiens, UniProt O14964); assay: biochemical
Chain of hHGS 1-390-6 × HIS protein (O14964 1-390): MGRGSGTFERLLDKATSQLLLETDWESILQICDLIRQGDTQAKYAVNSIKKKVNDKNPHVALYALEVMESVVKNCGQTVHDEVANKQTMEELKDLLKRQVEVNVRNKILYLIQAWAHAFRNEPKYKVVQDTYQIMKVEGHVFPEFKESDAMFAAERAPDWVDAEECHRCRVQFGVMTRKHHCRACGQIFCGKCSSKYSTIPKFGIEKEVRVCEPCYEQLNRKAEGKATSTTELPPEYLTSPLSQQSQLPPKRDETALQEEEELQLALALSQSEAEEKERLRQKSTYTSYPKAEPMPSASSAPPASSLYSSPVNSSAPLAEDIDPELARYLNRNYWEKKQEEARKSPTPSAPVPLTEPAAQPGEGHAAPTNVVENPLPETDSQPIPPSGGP

[14] = Tolerability of RTB in mice; conditions: high concentrations (500 mg/kg)

## CCCC(=O)OC[C@@H](OC(=O)CCC)[C@@H](OC(=O)CCC)[C@H](Cn1c2nc(=O)[nH]c(=O)c-2nc2cc(C)c(C)cc21)OC(=O)CCC [RTB, riboflavin tetrabutyrate]
SARS-CoV-2 wild-type
  EC50: 14.8 µM
SARS-CoV-2 Omicron BA.5 [1]
  EC50: 4.09 µM
HCoV-NL63 [2]; conc 30 (unit not given)
  Inhibition rate (IFA): -14.9284% and -12.1937% and -12.3632%
HCoV-NL63 [2]; conc 100 (unit not given)
  Inhibition rate (IFA): -16.9149% and -18.5591% and -23.768%
HCoV-NL63 [2]; conc 1000 (unit not given)
  Inhibition rate (IFA): -12.8364% and -7.587% and -17.221%
HCoV-NL63 [2]; conc 10000 (unit not given)
  Inhibition rate (IFA): 59.7114% and 61.0537% and 58.023%
HCoV-NL63 [2]; conc 25000 (unit not given)
  Inhibition rate (IFA): 99.7675% and 100.17% and 100.28%
HCoV-NL63 [2]; Human coronavirus NL63, 48 h, read-out: EC50 (IFA)
  EC50: 8.46 µM
MHV [3]
  EC50: 11.2 µM
HCoV-OC43; Betacoronavirus 1, OC43, 48 h, read-out: EC50 (IFA)
  EC50: 13.9 µM
HCoV-OC43; conc 10 (unit not given)
  Inhibition rate (IFA): 33.23% and 29.76% and 39.01%
HCoV-OC43; conc 30 (unit not given)
  Inhibition rate (IFA): 30.69% and 22.69% and 29.93%
HCoV-OC43; conc 100 (unit not given)
  Inhibition rate (IFA): 21.56% and 24.49% and 30.14%
HCoV-OC43; conc 300 (unit not given)
  Inhibition rate (IFA): 23.53% and 24.32% and 29.19%
HCoV-OC43; conc 1000 (unit not given)
  Inhibition rate (IFA): 26.08% and 27.96% and 36.83%
HCoV-OC43; conc 3000 (unit not given)
  Inhibition rate (IFA): 25.37% and 28.07% and 29.03%
HCoV-OC43; conc 10000 (unit not given)
  Inhibition rate (IFA): 32.25% and 33.08% and 32.48%
HCoV-OC43; conc 25000 (unit not given)
  Inhibition rate (IFA): 79.43% and 69.76% and 58.83%
HCoV-229E [4]; conc 10 (unit not given)
  Inhibition rate (IFA): 1.96% and 3.23% and 5.67%
HCoV-229E [4]; conc 30 (unit not given)
  Inhibition rate (IFA): 3.76% and 4.49% and 3.62%
HCoV-229E [4]; conc 100 (unit not given)
  Inhibition rate (IFA): 5.42% and 6.32% and 1.81%
HCoV-229E [4]; conc 200 (unit not given)
  Inhibition rate (IFA): 10.91% and 9.21% and 8.05%
HCoV-229E [4]; conc 1000 (unit not given)
  Inhibition rate (IFA): 20.9% and 20.96% and 21.52%
HCoV-229E [4]; conc 5000 (unit not given)
  Inhibition rate (IFA): 53.61% and 55.59% and 56.09%
HCoV-229E [4]; conc 10000 (unit not given)
  Inhibition rate (IFA): 87.09% and 86.7% and 87.17%
HCoV-229E [4]; conc 20000 (unit not given)
  Inhibition rate (IFA): 98.7% and 98.72% and 98.89%
HCoV-229E [4]; Human coronavirus 229E, 48 h, read-out: EC50 (IFA)
  EC50: 6.11 µM
HCoV-229E [5]; Fig 5H, HCoV-229E MOI = 1, ALI-cultured HBEs, 96 h, RTB dose 5 (unit not given)
  extracellular viral gRNA levels (RT-qPCR): 7 and 6 and 8
HCoV-229E [5]; HCoV-229E
  inhibition of infection in ALI cultures of HBEs: significant, dose-dependent inhibition
HCoV-NL63 [6]; Fig 5J, HCoV-NL63 MOI = 1, ALI-cultured HBEs, 96 h, RTB dose 5 (unit not given)
  extracellular viral gRNA levels (RT-qPCR): 46 and 42 and 25
HCoV-NL63 [6]; HCoV-NL63
  inhibition of infection in ALI cultures of HBEs: significant, dose-dependent inhibition
SARS-CoV-2 Omicron BA.5 [7]
  Survival curves: per-mouse event code: 0
  body weight loss: markedly reduced body weight loss
  lung inflammation: alleviated lung inflammation
  pulmonary viral titers: substantially lowered pulmonary viral titers
  survival: significantly improved survival
MHV [8]
  pulmonary viral titers: lowered pulmonary viral titers
  viral gRNA: significantly reduced viral gRNA
  virus-induced lung injury: markedly attenuated virus-induced lung injury
HCoV-229E [9]
  pulmonary viral titers: lowered pulmonary viral titers
  viral gRNA: significantly reduced viral gRNA
  virus-induced lung injury: markedly attenuated virus-induced lung injury
SARS-CoV-2 VLP
  VLPs' release: concentration-dependent inhibition
MERS VLP
  VLPs' release: concentration-dependent inhibition
SARS-CoV-2 M protein
  Colocalization of M with Sec61b (Manders' coefficient): 0.92 and 0.994 and 0.992
  M protein localization: induced M retention in the ER
  Sec61b colocalization coefficient (Figure 7I): 0.867 and 0.94 and 0.917
[10]; 1h, concentration 10000 (unit not given)
  Inhibition, time-of-drug-addition (Figures S12A, S12B): 18.697 and 20.3699 and 24.961
[10]; 1h, concentration 25000 (unit not given)
  Inhibition, time-of-drug-addition (Figures S12A, S12B): 81.3431 and 85.284 and 85.9984
[10]; 3h, concentration 3000 (unit not given)
  Inhibition, time-of-drug-addition (Figures S12A, S12B): 10.0367 and 8.463 and 5.695
[10]; 3h, concentration 10000 (unit not given)
  Inhibition, time-of-drug-addition (Figures S12A, S12B): 25.0374 and 23.4524 and 23.7085
[10]; 3h, concentration 25000 (unit not given)
  Inhibition, time-of-drug-addition (Figures S12A, S12B): 87.678 and 84.0771 and 84.6309
[10]; 5h, concentration 10000 (unit not given)
  Inhibition, time-of-drug-addition (Figures S12A, S12B): 24.2683 and 28.1902 and 26.5679
[10]; 5h, concentration 25000 (unit not given)
  Inhibition, time-of-drug-addition (Figures S12A, S12B): 80.9022 and 85.7938 and 85.9604
[10]; 7h, concentration 3000 (unit not given)
  Inhibition, time-of-drug-addition (Figures S12A, S12B): 11.352 and 13.6306 and 7.232
[10]; 7h, concentration 10000 (unit not given)
  Inhibition, time-of-drug-addition (Figures S12A, S12B): 27.8545 and 21.5848 and 25.4245
[10]; 7h, concentration 25000 (unit not given)
  Inhibition, time-of-drug-addition (Figures S12A, S12B): 81.9707 and 81.2844 and 80.2961
MHV [11]; RTB 0.01 uM
  Inhibition, combination matrix (Figure S12C): -3.196
  Inhibition, combination matrix (Figure S12D): 0.02357
MHV [11]; RTB 0.03 uM
  Inhibition, combination matrix (Figure S12C): 0.4191
  Inhibition, combination matrix (Figure S12D): 0.6847
MHV [11]; RTB 0.1 uM
  Inhibition, combination matrix (Figure S12C): 5.187
  Inhibition, combination matrix (Figure S12D): 4.267
MHV [11]; RTB 0.3 uM
  Inhibition, combination matrix (Figure S12C): 0.1333
  Inhibition, combination matrix (Figure S12D): 7.699
MHV [11]; RTB 1 uM
  Inhibition, combination matrix (Figure S12C): 5.1
  Inhibition, combination matrix (Figure S12D): 9.0154
MHV [11]; RTB 3 uM
  Inhibition, combination matrix (Figure S12C): 12.0762
  Inhibition, combination matrix (Figure S12D): 25.2258
MHV [11]; RTB 10 uM
  Inhibition, combination matrix (Figure S12C): 64.6863
  Inhibition, combination matrix (Figure S12D): 39.9859
MHV [11]; RTB 25 uM
  Inhibition, combination matrix (Figure S12C): 94.0563
  Inhibition, combination matrix (Figure S12D): 93.5156
MHV [11]; combined with molnupiravir
  combination effect in vitro: additive effects
MHV [11]; combined with nirmatrelvir
  combination effect in vitro: additive effects
MHV [12]; concentration 10
  viability of infected cells (rescue of cytopathic effect), Figures S9G-L: 46.6398 and 47.8192 and 45.9379
MHV [12]; concentration 30
  viability of infected cells (rescue of cytopathic effect), Figures S9G-L: 48.4931 and 47.9876 and 45.7132
MHV [12]; concentration 100
  viability of infected cells (rescue of cytopathic effect), Figures S9G-L: 49.4197 and 48.1842 and 47.2295
MHV [12]; concentration 300
  viability of infected cells (rescue of cytopathic effect), Figures S9G-L: 52.6488 and 47.5665 and 45.7132
MHV [12]; concentration 1000
  viability of infected cells (rescue of cytopathic effect), Figures S9G-L: 53.6878 and 50.8517 and 50.0094
MHV [12]; concentration 3000
  viability of infected cells (rescue of cytopathic effect), Figures S9G-L: 66.4358 and 61.915 and 62.9259
MHV [12]; concentration 10000
  viability of infected cells (rescue of cytopathic effect), Figures S9G-L: 81.009 and 81.0651 and 81.6829
MHV [12]; concentration 25000
  viability of infected cells (rescue of cytopathic effect), Figures S9G-L: 85.0805 and 84.4908 and 83.1711
[13]
  Kd: 4.82 µM
[14]
  cytotoxicity or adverse effects in mice: no cytotoxicity or adverse effects
